“Also recorded” adds a separate entry of the source. Residues, ends and D or L forms follow the SMILES beside them.
Assays:
[1] = Rheology (frequency, time and strain sweeps); format: physicochemical; details: for G' pre-assembling: average storage modulus of SAPeptide solution, before PBS; for G' pre-assembling / G' post-assembling: 1-100 Hz; for G' post-assembling: average storage modulus of jellified scaffold, after PBS; for Onset point (% strain): strain percentage at rupture, strain sweep at 1 Hz, 25 C
Description: Rheological properties of the self-assembling peptides of the invention were determined using a controlled stress TA Instruments AR-2000ex rheometer (TA Instruments). A cone-and-plate geometry (acrylic cone diameter, 20 mm; angle, 1°; truncation gap 34 µm) was used. Preliminary strain sweeps were performed for each sample to define the linear viscoelastic region, thus ensuring that moduli were independent of strain. Time sweeps, after addition of PBS (1x) were recorded at 25 C (angular frequency ω=1 Hz) and continued till G' plateaued. Frequency sweeps, both for peptide water solutions and for self-assembled scaffolds, were performed at 25 C with the instrument in oscillatory mode at controlled strain of 1 %. Final strain sweeps was performed at 1Hz oscillatory frequency and at 25 C: onset point of failure was calculated by linear interpolation and subsequent determination of the intersection of the G' modes within the linear region and at material failure respectively.

murine NSCs [2] = test: Imaging and cell proliferation (MTS) assay on assembled scaffolds, murine NSCs; format: cell-based; details: for cell morphology, adhesion and spreading: 7 DIV on assembled hydrogels; for cell viability (MTS, cell population): 7 DIV, scaffolds 10 mg/ml, vs control, P<0.005, n=5
Description: (§1) In vitro tests were performed as previously described (8), in order to assess whether the biomaterials (assembled hydrogels) obtained with the SAPs of the present invention influenced NSCs adhesion, survival and/or differentiation. SAPeptides (30 µl for each well at a concentration of 10 mg/ml) were assembled into 96 multiwells two hours before cell. Cells (at a concentration of 2x10^4 cells/cm^2) were seeded on the top-surface of each assembled scaffold. Initially, cells were cultured with basal medium supplemented with βFGF (10 ng/ml), added to enhance neuronal progeny differentiation. At 3 days in vitro (DIV), βFGF medium was replaced with Leukemia Inhibitory Factor (LIF, Chemicon) (20 ng/ml) and Brain Derived Neurotrophic Factor (BDNF, Peprotech) (20 ng/ml). Fresh medium was added every three days. For both viability and differentiation assays positive and negative controls consisted of Cultrex-BME® substrate (R&D systems) (1:100 dilution in basal medium) and untreated bottom well surfaces respectively. Cell viability was quantified via CellTiter 96® Aqueous Proliferation Assay (Promega) at 7 DIV as recommended in the Promega protocol. After calibrating the linear response between the cell number and absorbance values, proliferated cell populations were quantified (n=5) by using a Vmax microplate reader (Molecular Devices) at 490nm wavelength. Values, reported as means ± standard error of the mean, were blanked to their respective controls consisting of same substrates and cell culture media without cells.

murine NSCs [3] = test: Immunofluorescence of differentiated NSC progeny on scaffolds, murine NSCs; format: cell-based; details: for percentages of neurons (βIIITubulin positive cells): scaffolds of stiffness 100, 500 and 1000 Pa, best values, softer scaffolds; for differentiated neurons (βIIITubulin positive cells) versus scaffold stiffness: stiffness 100, 500 and 1000 Pa, P<0.05, P<0.01
Description: as §1
(§2) Immunofluorescence tests were performed for assaying the phenotypes of the differentiated human and murine NSC progenies. In the case of KLP and Ac-KLP just murine NSC have been used. Ac-KLP and KLP scaffolds were prepared at different concentrations in order to display three different stiffness values (viz. 100, 500 and 1000 Pa). This was done to assess the influence of scaffold concentration (and consequently its stiffness) over NSC differentiation. All the other peptides were tested at 1% v/w concentration instead. The following antibodies were used: rabbit polyclonal against GFAP (1:500, DakoCytomation) for astrocytes, mouse monoclonal against βIII-Tubulin (1:500, Covance) for neurons, mouse monoclonal against GalC (1:200, Chemicon) and O4 (1:200, Chemicon) for oligodendrocyes. Secondary Abs were Goat anti Mouse Alexa 488 (1:1000, Molecular Probes), Goat anti Mouse Cy3 (1:1000, Jackson Immunoresearch), Goat anti Rabbit Cy3 (1:1000, Jackson Immunoresearch). Cell nuclei were counterstained with DAPI (Molecular Probes). Quantitative analyses were performed by counting 100-300 cells for each of 9 randomly chosen fields over a total of 3 independent experiments. Phase contrast and fluorescence images of the adhering cells were acquired via Zeiss microscopes Axioplan 2 and ApoTome System at one week after seeding.

human NSCs [4] = test: Imaging and cell proliferation (MTS) assay on assembled scaffolds, human NSCs; format: cell-based; details: for cell viability (MTS, cell population): 7 DIV, scaffolds 10 mg/ml, vs control, P<0.03, n=5
Description: as §1

human NSCs [5] = test: Immunofluorescence of differentiated NSC progeny on scaffolds, human NSCs; format: cell-based; details: 1% scaffold; compared to Cultrex positive control
Description: as §1
as §2, with “Cell nuclei were counterstained with DAPI (Molecular Probes).” left out

[6] = 1% scaffold, compared to Cultrex positive control

Row | G' pre-assembling ([1]; 1% w/v) [Pa] | G' post-assembling ([1]; 1% w/v) [Pa] | Onset point (% strain) [1] [%] | G' and G" values at different concentrations ([1]; 1% w/v, 2% w/v and 3% w/v) | SMILES | cell morphology, adhesion and spreading (murine NSCs [2]) | percentages of neurons (βIIITubulin positive cells) (murine NSCs [3]) | differentiated neurons (βIIITubulin positive cells) versus scaffold stiffness (murine NSCs [3]) | cell viability (MTS, cell population) (human NSCs [4]) | cell viability (MTS, cell population) (murine NSCs [2]) | cell morphology, adhesion and spreading (human NSCs [4]; 7 DIV on assembled hydrogels) | number of neurons (human NSCs [5]) | number of oligodendrocytes (human NSCs [5]) | number of neurons (murine NSCs [3]; [6]) | number of oligodendrocytes (murine NSCs [3]; [6])
1 | 4.53 | 296.9 | 28.58 | – | CC(C)C[C@H](NC(=O)CNC(=O)CNC(=O)CNC(=O)[C@H](Cc1c[nH]cn1)NC(=O)[C@H](CC(=O)O)NC(=O)[C@H](CCCNC(=N)N)NC(=O)[C@@H]1CCCN1C(=O)[C@H](CC(C)C)NC(=O)[C@H](Cc1c[nH]cn1)NC(=O)[C@@H](N)CCC(N)=O)C(=O)N[C@@H](CC(=O)O)C(=O)N[C@@H](CC(C)C)C(=O)N[C@@H](CCCCN)C(=O)N[C@@H](CC(C)C)C(=O)N[C@@H](CC(=O)O)C(=O)N[C@@H](CC(C)C)C(=O)N[C@@H](CCCCN)C(=O)N[C@@H](CC(C)C)C(=O)N[C@@H](CC(=O)O)C(=O)N[C@@H](CC(C)C)C(=O)N[C@@H](CCCCN)C(N)=O [QHL, NH2-QHLPRDH-GGG-LDLKLDLKLDLK-CONH2] (H-QHLPRDHGGGLDLKLDLKLDLK-NH2) | – | – | – | significantly fostered cell viability; also recorded: significantly favored | significantly fostered cell viability; also recorded: significantly favored | – | – | – | – | –
2 | 6.66 | 142.7 | 25.43 | – | CC(C)C[C@H](NC(=O)CNC(=O)CNC(=O)CNC(=O)[C@@H]1CCCN1C(=O)[C@@H]1CCCN1C(=O)[C@@H](NC(=O)[C@H](CCCNC(=N)N)NC(=O)[C@H](CCC(N)=O)NC(=O)[C@H](C)NC(=O)[C@@H](N)Cc1ccccc1)C(C)C)C(=O)N[C@@H](CC(=O)O)C(=O)N[C@@H](CC(C)C)C(=O)N[C@@H](CCCCN)C(=O)N[C@@H](CC(C)C)C(=O)N[C@@H](CC(=O)O)C(=O)N[C@@H](CC(C)C)C(=O)N[C@@H](CCCCN)C(=O)N[C@@H](CC(C)C)C(=O)N[C@@H](CC(=O)O)C(=O)N[C@@H](CC(C)C)C(=O)N[C@@H](CCCCN)C(N)=O [FAQ, NH2-FAQRVPP-GGG-LDLKLDLKLDLK-CONH2] (H-FAQRVPPGGGLDLKLDLKLDLK-NH2) | spread and branched cells | – | – | significantly fostered cell viability; also recorded: cell population was bigger | significantly fostered cell viability; also recorded: cell population was bigger | spread and branched cells | significantly higher | significantly higher | significantly higher | significantly higher
3 | 6.72 | 267.3 | 26.12 | – | CC(=O)N[C@@H](CO)C(=O)N[C@@H](CO)C(=O)N[C@@H](CC(C)C)C(=O)N[C@@H](CO)C(=O)N[C@H](C(=O)N[C@@H](CC(N)=O)C(=O)N[C@@H](CC(=O)O)C(=O)NCC(=O)NCC(=O)NCC(=O)N[C@@H](CC(C)C)C(=O)N[C@@H](CC(=O)O)C(=O)N[C@@H](CC(C)C)C(=O)N[C@@H](CCCCN)C(=O)N[C@@H](CC(C)C)C(=O)N[C@@H](CC(=O)O)C(=O)N[C@@H](CC(C)C)C(=O)N[C@@H](CCCCN)C(=O)N[C@@H](CC(C)C)C(=O)N[C@@H](CC(=O)O)C(=O)N[C@@H](CC(C)C)C(=O)N[C@@H](CCCCN)C(N)=O)C(C)C [Ac-SSL, Ac-SSLSVND-GGG-LDLKLDLKLDLK-CONH2] (Ac-SSLSVNDGGGLDLKLDLKLDLK-NH2) | – | – | – | – | – | – | – | – | – | –

Further lines, the compound ahead of its results:

Row | SMILES | G' pre-assembling ([1]; 1% w/v) [Pa] | G' post-assembling ([1]; 1% w/v) [Pa] | Onset point (% strain) [1] [%] | G' and G" values at different concentrations ([1]; 1% w/v, 2% w/v and 3% w/v) | cell morphology, adhesion and spreading (murine NSCs [2]) | percentages of neurons (βIIITubulin positive cells) (murine NSCs [3]) | differentiated neurons (βIIITubulin positive cells) versus scaffold stiffness (murine NSCs [3]) | cell viability (MTS, cell population) (human NSCs [4]) | cell viability (MTS, cell population) (murine NSCs [2]) | cell morphology, adhesion and spreading (human NSCs [4]; 7 DIV on assembled hydrogels) | number of neurons (human NSCs [5]) | number of oligodendrocytes (human NSCs [5]) | number of neurons (murine NSCs [3]; [6]) | number of oligodendrocytes (murine NSCs [3]; [6])
4 | CC(=O)N[C@@H](CCC(N)=O)C(=O)N[C@@H](Cc1c[nH]cn1)C(=O)N[C@@H](CC(C)C)C(=O)N1CCC[C@H]1C(=O)N[C@@H](CCCNC(=N)N)C(=O)N[C@@H](CC(=O)O)C(=O)N[C@@H](Cc1c[nH]cn1)C(=O)NCC(=O)NCC(=O)NCC(=O)N[C@@H](CC(C)C)C(=O)N[C@@H](CC(=O)O)C(=O)N[C@@H](CC(C)C)C(=O)N[C@@H](CCCCN)C(=O)N[C@@H](CC(C)C)C(=O)N[C@@H](CC(=O)O)C(=O)N[C@@H](CC(C)C)C(=O)N[C@@H](CCCCN)C(=O)N[C@@H](CC(C)C)C(=O)N[C@@H](CC(=O)O)C(=O)N[C@@H](CC(C)C)C(=O)N[C@@H](CCCCN)C(N)=O [Ac-QHL, Ac-QHLPRDH-GGG-LDLKLDLKLDLK-CONH2] (Ac-QHLPRDHGGGLDLKLDLKLDLK-NH2) | 2.68 | 166.7 | 10.16 | – | – | – | – | – | – | – | – | – | – | –
5 | CC(C)C[C@H](NC(=O)CNC(=O)CNC(=O)CNC(=O)CNC(=O)[C@H](CO)NC(=O)[C@H](Cc1c[nH]c2ccccc12)NC(=O)CNC(=O)[C@@H]1CCCN1C(=O)[C@H](CC(C)C)NC(=O)[C@@H](N)CCCCN)C(=O)N[C@@H](CC(=O)O)C(=O)N[C@@H](CC(C)C)C(=O)N[C@@H](CCCCN)C(=O)N[C@@H](CC(C)C)C(=O)N[C@@H](CC(=O)O)C(=O)N[C@@H](CC(C)C)C(=O)N[C@@H](CCCCN)C(=O)N[C@@H](CC(C)C)C(=O)N[C@@H](CC(=O)O)C(=O)N[C@@H](CC(C)C)C(=O)N[C@@H](CCCCN)C(N)=O [KLP, NH2-KLPGWSG-GGG-LDLKLDLKLDLK-CONH2] (H-KLPGWSGGGGLDLKLDLKLDLK-NH2) | 3.30 | 51.38 | 56.46 | – | fostered NSCs adhesion and spreading similarly to FAQ | above 50% | significant increments of differentiated neurons | – | – | – | – | – | – | –
6 | CC(=O)N[C@@H](CCCCN)C(=O)N[C@@H](CC(C)C)C(=O)N1CCC[C@H]1C(=O)NCC(=O)N[C@@H](Cc1c[nH]c2ccccc12)C(=O)N[C@@H](CO)C(=O)NCC(=O)NCC(=O)NCC(=O)NCC(=O)N[C@@H](CC(C)C)C(=O)N[C@@H](CC(=O)O)C(=O)N[C@@H](CC(C)C)C(=O)N[C@@H](CCCCN)C(=O)N[C@@H](CC(C)C)C(=O)N[C@@H](CC(=O)O)C(=O)N[C@@H](CC(C)C)C(=O)N[C@@H](CCCCN)C(=O)N[C@@H](CC(C)C)C(=O)N[C@@H](CC(=O)O)C(=O)N[C@@H](CC(C)C)C(=O)N[C@@H](CCCCN)C(N)=O [Ac-KLP, Ac-KLPGWSG-GGG-LDLKLDLKLDLK-CONH2] (Ac-KLPGWSGGGGLDLKLDLKLDLK-NH2) | 2.88 | 91.2 | 47.82 | increased with concentration increments | – | above 50% | significant increments of differentiated neurons | – | – | – | – | – | – | –
7 | CC(C)C[C@H](NC(=O)CNC(=O)CNC(=O)CNC(=O)[C@H](CC(=O)O)NC(=O)[C@H](CC(N)=O)NC(=O)[C@@H](NC(=O)[C@H](CO)NC(=O)[C@H](CC(C)C)NC(=O)[C@H](CO)NC(=O)[C@@H](N)CO)C(C)C)C(=O)N[C@@H](CC(=O)O)C(=O)N[C@@H](CC(C)C)C(=O)N[C@@H](CCCCN)C(=O)N[C@@H](CC(C)C)C(=O)N[C@@H](CC(=O)O)C(=O)N[C@@H](CC(C)C)C(=O)N[C@@H](CCCCN)C(=O)N[C@@H](CC(C)C)C(=O)N[C@@H](CC(=O)O)C(=O)N[C@@H](CC(C)C)C(=O)N[C@@H](CCCCN)C(N)=O [SSL, NH2-SSLSVND-GGG-LDLKLDLKLDLK-CONH2] (H-SSLSVNDGGGLDLKLDLKLDLK-NH2) | 9.01 | 124.7 | 17.78 | – | – | – | – | – | – | – | – | – | – | –

— patent publication EP2686338B1, “FUNCTIONALIZED BIOMATERIALS FOR TISSUE REGENERATION” (Nanomed3d S.r.l., priority 2011, dated 2018)
